Data reported in US9249085B2, “Aniline derivatives, their preparation and their therapeutic application” (FOVEA PHARMACEUTICALS, priority 2011, dated 2016).

Molecular target: recombinant human prostanoid EP2 receptor (Homo sapiens (Human), UniProt P43116)
Assay: Human prostanoid EP2 receptor cellular functional assay (cAMP, HTRF)
Format: cell-based
Settings: for EC50: CHO cells expressing recombinant human EP2, cAMP by HTRF, 30 min, 37° C., read-out: In vitro functional assay EP2 (h) EC50; for In vitro functional assay EP2 (h) % response: percent of control specific agonist response (10 μM PGE2)
Description: Test 1.2: Human Prostanoid EP2 Receptor Cellular Functional Assay
Human CHO cells expressing the recombinant human prostanoid EP2 receptor were suspended in assay medium (HBSS buffer (Invitrogen) containing 20 mM HEPES (pH7.4) and 500 μM isobutyl-methylxanthine IBMX) and plated out to yield approximately 1×10^4 cells/well in a 96-well. Following this, cells were incubated with agonists for 30 min in the presence of the test compounds. For stimulated control measurements, separate assay wells contain 10 μM PGE2 (control specific agonist). All incubations were carried out at 37° C. in a 5% CO2 atmosphere. Following incubation, the amount of cAMP in each well was determined by HTRF method. The cells are lysed and the fluorescence acceptor (D2-labeled cAMP) and fluorescence donor (anti-cAMP antibody labeled with europium cryptate) are added. After 60 min at room temperature, the fluorescence transfer is measured at λ ex=337 nm and λ em=620 and 665 nm using a microplate reader (Rubystar, BMG).
The cAMP concentration is determined by dividing the signal measured at 665 nm by that measured at 620 nm (ratio).
The standard reference agonist PGE2 was tested at several concentrations to generate a concentration-response curve to determined EC50.
Analysis and Expression of Results
The results are expressed as a percent of control specific agonist response ((measured specific response/control specific agonist response)×100) obtained in the presence of the test compounds. The EC50 values (concentration producing a half-maximal specific response) were determined by non-linear regression analysis of the concentration-response curves generated with mean replicate values using Hill equation curve fitting (Y=D+[(A−D)/(1+(C/C50)nH)], where Y=specific response, D=minimum specific response, A=maximum specific response, C=compound concentration, and C50=EC50 and nH=slope factor). This analysis was performed using a software developed at Cerep (Hill software) and validated by comparison with data generated by the commercial software SigmaPlot® 4.0 for Windows® (© 1997 by SPSS Inc.).

recombinant human prostanoid EP2 receptor, sequence (P43116 whole entry): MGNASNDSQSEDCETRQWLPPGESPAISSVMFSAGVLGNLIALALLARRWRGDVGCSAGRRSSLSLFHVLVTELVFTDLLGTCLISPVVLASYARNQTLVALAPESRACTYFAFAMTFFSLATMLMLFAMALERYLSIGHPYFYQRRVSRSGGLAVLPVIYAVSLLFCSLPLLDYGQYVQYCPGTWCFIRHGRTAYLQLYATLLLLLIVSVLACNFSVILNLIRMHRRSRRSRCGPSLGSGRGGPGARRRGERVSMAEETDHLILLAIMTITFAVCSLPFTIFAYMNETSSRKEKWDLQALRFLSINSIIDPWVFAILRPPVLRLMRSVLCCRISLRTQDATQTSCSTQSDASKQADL

Row | Compound | EC50 [nM] | In vitro functional assay EP2 (h) % response [%]
1 | Cc1cc(-c2cc(F)cc(F)c2)cc(CNc2c(F)ccc(OCC(=O)O)c2F)c1C [I(ar), 2-[3-[[5-(3,5-difluorophenyl)-2,3-dimethyl-phenyl]methylamino]-2,4-difluoro-phenoxy]acetic acid] | 8 | 130
2 | N#Cc1cc(CNc2c(F)ccc(OCC(=O)O)c2F)cc(-c2cccc(F)c2)c1 [I(x), 2-[3-[[3-cyano-5-(3-fluorophenyl)phenyl]methylamino]-2,4-difluoro-phenoxy]acetic acid] | 27 | 45
3 | O=C(O)COc1cccc(CN(Cc2ccc(-n3cccn3)cc2)S(=O)(=O)c2cccnc2)c1 [CP-544326, reference compound] | 46 | 72
4 | Cc1cc(-c2ccccc2)cc(CNc2c(F)ccc(OCC(=O)O)c2F)c1C [I(au), 2-[3-[(2,3-dimethyl-5-phenyl-phenyl)methylamino]-2,4-difluoro-phenoxy]acetic acid] | 15 | 81
5 | O=C(O)COc1cccc(NCc2cc(-c3cccc(F)c3)ccc2F)c1 [I(a), 2-[3-[[2-Fluoro-5-(3-fluorophenyl)phenyl]methylamino]phenoxy]acetic acid] | 110 | 74
6 | COc1cc(CNc2c(C)ccc(OCC(=O)O)c2C)cc(-c2cccc(F)c2)c1 [I(ap), 2-[3-[[3-(3-fluorophenyl)-5-methoxy-phenyl]methylamino]-2,4-dimethyl-phenoxy]acetic acid] | 3 | 89
7 | Cc1cc(CNc2c(C)ccc(OCC(=O)O)c2C)cc(-c2cccc(F)c2)c1 [I(aj), 2-[3-[[3-(3-fluorophenyl)-5-methyl-phenyl]methylamino]-2,4-dimethyl-phenoxy]acetic acid] | 7 | 79
8 | NC(=O)c1cc(CNc2c(F)ccc(OCC(=O)O)c2F)cc(-c2cccc(F)c2)c1 [I(z), 2-[3-[[3-carbamoyl-5-(3-fluorophenyl)phenyl]methylamino]-2,4-difluoro-phenoxy]acetic acid] | 4 | 53
9 | Cc1ccc(OCC(=O)O)c(C)c1NCc1cc(O)cc(-c2cccc(F)c2)c1 [I(ao), 2-[3-[[3-(3-fluorophenyl)-5-hydroxy-phenyl]methylamino]-2,4-dimethyl-phenoxy]acetic acid] | 1 | 76
10 | C[C@@H](Nc1c(F)ccc(OCC(=O)O)c1F)c1cc(-c2cccc(F)c2)ccc1F (single isomer, unassigned) [I(as) (+ isomer)] | 18 | 124
11 | Cc1cc(-c2ccc(F)c(F)c2)cc(CNc2c(F)ccc(OCC(=O)O)c2F)c1C [I(aq), 2-[3-[[5-(3,4-difluorophenyl)-2,3-dimethyl-phenyl]methylamino]-2,4-difluoro-phenoxy]acetic acid] | 2 | 31
12 | COc1c(C)cc(-c2cccc(F)c2)cc1CNc1c(F)ccc(OCC(=O)O)c1C [I(af), 2-[4-fluoro-3-[[5-(3-fluorophenyl)-2-methoxy-3-methyl-phenyl]methylamino]-2-methyl-phenoxy]acetic acid] | 5 | 70
13 | O=C(O)COc1ccc(F)c(NCc2cc(-c3ccc(F)c(F)c3)ccc2F)c1F [I(w), 2-[3-[[5-(3,4-difluorophenyl)-2-fluoro-phenyl]methylamino]-2,4-difluoro-phenoxy]acetic acid] | 14 | 40
14 | CC(Nc1c(F)ccc(OCC(=O)O)c1F)c1cc(-c2cccc(F)c2)ccc1F (racemic) [I(as), (R,S)-2-[2,4-difluoro-3-[1-[2-fluoro-5-(3-fluorophenyl)phenyl]ethylamino]phenoxy]acetic acid] | 11 | 107

Second part, the compound after the results:

Row | EC50 [nM] | In vitro functional assay EP2 (h) % response [%] | Compound
15 | 50 | 105 | Cc1cc(OCC(=O)O)c(F)c(NCc2cc(-c3cccc(F)c3)ccc2F)c1F [I(ab), 2-[2,4-difluoro-3-[[2-fluoro-5-(3-fluorophenyl)phenyl]methylamino]-5-methyl-phenoxy]acetic acid]
16 | 18 | 117 | Cc1cc(OCC(=O)O)c(C)c(NCc2cc(-c3cccc(F)c3)ccc2F)c1F [I(ac), 2-[4-fluoro-3-[[2-fluoro-5-(3-fluorophenyl)phenyl]methylamino]-2,5-dimethyl-phenoxy]acetic acid]
17 | 3 | 87 | Cc1cc(CNc2c(C)ccc(OCC(=O)O)c2C)c(F)c(-c2cccc(F)c2)c1 [I(am), 2-[3-[[2-Fluoro-3-(3-fluorophenyl)-5-methyl-phenyl]methylamino]-2,4-dimethyl-phenoxy]acetic acid]
18 | 55 | 80 | Cc1cc(CNc2c(F)ccc(OCC(=O)O)c2F)c(F)c(-c2cccc(F)c2)c1 [I(g), 2-[2,4-difluoro-3-[[2-fluoro-3-(3-fluorophenyl)-5-methyl-phenyl]methylamino]phenoxy]acetic acid]
19 | 3 | 83 | Cc1cc(CNc2c(F)ccc(OCC(=O)O)c2C)cc(-c2cccc(F)c2)c1 [I(ae), 2-[4-fluoro-3-[[3-(3-fluorophenyl)-5-methyl-phenyl]methylamino]-2-methyl-phenoxy]acetic acid]
20 | 99 | 73 | Cc1ccc(OCC(=O)O)c(F)c1NCc1cc(-c2cccc(F)c2)ccc1F [I(i), 2-[2-Fluoro-3-[[2-fluoro-5-(3-fluorophenyl)phenyl]methylamino]-4-methyl-phenoxy]acetic acid]
21 | 28 | 82 | O=C(O)COc1ccc(F)c(NCc2cc(-c3cccc(F)c3)ccc2F)c1F [I(b), 2-[2,4-Difluoro-3-[[2-fluoro-5-(3-fluorophenyl)phenyl]methylamino]phenoxy]acetic acid]
22 | 52 | 86 | O=C(O)COc1ccc(F)c(NCc2cc(F)cc(-c3cccc(F)c3)c2)c1F [I(n), 2-[2,4-Difluoro-3-[[3-fluoro-5-(3-fluorophenyl)phenyl]methylamino]phenoxy]acetic acid]
23 | 9 | 78 | Cc1cc(-c2cccc(F)c2)cc(CNc2c(F)ccc(OCC(=O)O)c2F)c1O [I(u), 2-[2,4-Difluoro-3-[[5-(3-fluorophenyl)-2-hydroxy-3-methyl-phenyl]methylamino]phenoxy]acetic acid]
24 | 35 | 74 | Cc1cc(CNc2c(F)ccc(OCC(=O)O)c2F)cc(-c2cccc(F)c2)c1 [I(d), 2-[2,4-Difluoro-3-[[3-(3-fluorophenyl)-5-methyl-phenyl]methylamino]phenoxy]acetic acid]
25 | 35 | 80 | Cc1cc(CNc2c(F)ccc(OCC(=O)O)c2C)c(F)c(-c2cccc(F)c2)c1 [I(ai), 2-[4-fluoro-3-[[2-fluoro-3-(3-fluorophenyl)-5-methyl-phenyl]methylamino]-2-methyl-phenoxy]acetic acid]
26 | 2 | 85 | Cc1cc(-c2cccc(F)c2)cc(CNc2c(F)ccc(OCC(=O)O)c2F)c1C [I(v), 2-[2,4-Difluoro-3-[[5-(3-fluorophenyl)-2,3-dimethyl-phenyl]methylamino]phenoxy]acetic acid]
27 | 17 | 72 | O=C(O)COc1ccc(F)c(NCc2c(F)ccc(-c3cccc(F)c3)c2F)c1F [I(s), 2-[3-[[2,6-Difluoro-3-(3-fluorophenyl)phenyl]methylamino]-2,4-difluoro-phenoxy]acetic acid]
28 | 130 | 62 | Cc1c(-c2cccc(F)c2)ccc(F)c1CNc1c(F)ccc(OCC(=O)O)c1F [I(y), 2-[2,4-difluoro-3-[[6-fluoro-3-(3-fluorophenyl)-2-methyl-phenyl]methylamino]phenoxy]acetic acid]
29 | 18 | 70 | COc1cc(CNc2c(F)ccc(OCC(=O)O)c2F)cc(-c2cccc(F)c2)c1 [I(q), 2-[2,4-Difluoro-3-[[3-(3-fluorophenyl)-5-methoxy-phenyl]methylamino]phenoxy]acetic acid]
30 | 160 | 61 | O=C(O)COc1ccc(F)c(NCc2cc(O)cc(-c3cccc(F)c3)c2F)c1F [I(f), 2-[2,4-Difluoro-3-[[2-fluoro-3-(3-fluorophenyl)-5-hydroxy-phenyl]methylamino]phenoxy]acetic acid]
